# Where a SMILES comes first, the peptide text is derived from it.
# T1: Solute carrier family 15 member 1 (Homo sapiens, UniProt P46059)
# T1 sequence (P46059 whole entry): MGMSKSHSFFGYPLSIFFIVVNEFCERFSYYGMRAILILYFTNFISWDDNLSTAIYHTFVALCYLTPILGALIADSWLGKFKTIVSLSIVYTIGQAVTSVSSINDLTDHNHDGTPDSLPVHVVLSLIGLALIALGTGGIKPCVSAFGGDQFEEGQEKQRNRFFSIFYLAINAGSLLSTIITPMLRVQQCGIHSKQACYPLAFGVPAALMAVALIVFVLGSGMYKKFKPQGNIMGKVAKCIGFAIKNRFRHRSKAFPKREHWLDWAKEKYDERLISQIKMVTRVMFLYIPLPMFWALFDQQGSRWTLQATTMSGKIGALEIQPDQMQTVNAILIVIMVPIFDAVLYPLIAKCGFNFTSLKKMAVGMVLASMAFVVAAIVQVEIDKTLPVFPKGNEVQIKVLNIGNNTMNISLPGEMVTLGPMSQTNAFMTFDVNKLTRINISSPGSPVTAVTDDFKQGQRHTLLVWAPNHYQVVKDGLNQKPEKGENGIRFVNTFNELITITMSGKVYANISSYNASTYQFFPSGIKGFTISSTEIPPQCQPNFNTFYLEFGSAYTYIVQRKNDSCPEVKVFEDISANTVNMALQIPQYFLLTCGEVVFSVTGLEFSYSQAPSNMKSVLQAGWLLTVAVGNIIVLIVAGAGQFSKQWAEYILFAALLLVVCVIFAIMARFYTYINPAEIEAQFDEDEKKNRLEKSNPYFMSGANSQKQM
# T2: Solute carrier family 15 member 2 (Homo sapiens, UniProt Q16348)
# T2 sequence (Q16348 whole entry): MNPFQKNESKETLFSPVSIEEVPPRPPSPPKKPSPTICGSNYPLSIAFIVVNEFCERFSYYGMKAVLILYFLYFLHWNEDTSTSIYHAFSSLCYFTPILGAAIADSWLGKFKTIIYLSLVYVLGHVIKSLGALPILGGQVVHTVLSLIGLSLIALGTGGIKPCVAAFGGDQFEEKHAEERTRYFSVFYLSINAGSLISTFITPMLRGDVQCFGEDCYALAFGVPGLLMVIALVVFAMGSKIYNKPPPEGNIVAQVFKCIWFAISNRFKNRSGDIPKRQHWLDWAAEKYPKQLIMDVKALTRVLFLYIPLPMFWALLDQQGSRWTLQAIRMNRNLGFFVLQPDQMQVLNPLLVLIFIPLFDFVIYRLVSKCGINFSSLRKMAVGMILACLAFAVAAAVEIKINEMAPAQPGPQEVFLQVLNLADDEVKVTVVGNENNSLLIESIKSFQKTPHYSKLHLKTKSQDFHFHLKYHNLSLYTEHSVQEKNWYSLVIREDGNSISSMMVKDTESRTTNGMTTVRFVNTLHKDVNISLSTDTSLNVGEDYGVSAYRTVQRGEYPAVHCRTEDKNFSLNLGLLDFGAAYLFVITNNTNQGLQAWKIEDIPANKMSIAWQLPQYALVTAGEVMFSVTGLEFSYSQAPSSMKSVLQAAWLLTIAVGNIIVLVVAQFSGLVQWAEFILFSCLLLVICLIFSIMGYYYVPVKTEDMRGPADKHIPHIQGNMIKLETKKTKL
# What was measured:
# Format in all cases: functional, cell-based
# [1] = target: T1, Solute carrier family 15 member 1; assay: TP_TRANSPORTER: inhibition of Gly-Sar uptake in PEPT1-expressing HeLa cells
# [2] = target: T2, Solute carrier family 15 member 2; assay: TP_TRANSPORTER: inhibition of Gly-Sar uptake in PEPT2-expressing HeLa cells
# [3] = substrate: CN(CC(=O)O)C(=O)CN; assay: TP_TRANSPORTER: uptake in PEPT2-expressing HeLa cells
Molecule,Ki [1] [µM],Ki [2] [µM],Km [3] [µM]
C[C@H](N)C(=O)N[C@@H](C)C(=O)O (H-Ala-Ala-OH),78,6,–
C[C@H](N)C(=O)N[C@@H](CC(=O)O)C(=O)O (H-Ala-Asp-OH),78,18,–
C[C@H](N)C(=O)N[C@@H](CCCCN)C(=O)O (H-Ala-Lys-OH),117,11,–
NCCCC[C@H](NC(=O)[C@@H](N)CC(=O)O)C(=O)O (H-Asp-Lys-OH),108,8,–
C[C@H](NC(=O)[C@@H](N)CCCCN)C(=O)O (H-Lys-Ala-OH),419,23,–
"Solute carrier family 15 member 2 (Homo sapiens), Q16348 (protein) MNPFQKNESKETLFSPVSIEEVPPRPPSPPKKPSPTICGSNYPLSIAFIVVNEFCERFSYYGMKAVLILYFLYFLHWNEDTSTSIYHAFSSLCYFTPILGAAIADSWLGKFKTIIYLSLVYVLGHVIKSLGALPILGGQVVHTVLSLIGLSLIALGTGGIKPCVAAFGGDQFEEKHAEERTRYFSVFYLSINAGSLISTFITPMLRGDVQCFGEDCYALAFGVPGLLMVIALVVFAMGSKIYNKPPPEGNIVAQVFKCIWFAISNRFKNRSGDIPKRQHWLDWAAEKYPKQLIMDVKALTRVLFLYIPLPMFWALLDQQGSRWTLQAIRMNRNLGFFVLQPDQMQVLNPLLVLIFIPLFDFVIYRLVSKCGINFSSLRKMAVGMILACLAFAVAAAVEIKINEMAPAQPGPQEVFLQVLNLADDEVKVTVVGNENNSLLIESIKSFQKTPHYSKLHLKTKSQDFHFHLKYHNLSLYTEHSVQEKNWYSLVIREDGNSISSMMVKDTESRTTNGMTTVRFVNTLHKDVNISLSTDTSLNVGEDYGVSAYRTVQRGEYPAVHCRTEDKNFSLNLGLLDFGAAYLFVITNNTNQGLQAWKIEDIPANKMSIAWQLPQYALVTAGEVMFSVTGLEFSYSQAPSSMKSVLQAAWLLTIAVGNIIVLVVAQFSGLVQWAEFILFSCLLLVICLIFSIMGYYYVPVKTEDMRGPADKHIPHIQGNMIKLETKKTKL",–,–,74

# Source: ChEMBL document CHEMBL2073955, “Proton/peptide cotransporter (PEPT 2) from human kidney: functional characterization and chromosomal localization” (Biochim Biophys Acta, 1995)
